The source of these data is patent EP4647433A1, “SHP2 INHIBITOR AND USES THEREOF” (Kanaph Therapeutics Inc., priority 2023, dated 2024).

Like-named read-outs stand apart in the source and are kept apart here.

The target of one test is T1, SHP2 (Homo sapiens, UniProt Q06124).
T1 construct: SHP2 (full length, diluted to 100 pM final concentration in reaction buffer, BPS bioscience, US); purchased BPS bioscience, US
T1 sequence (Q06124 1-593): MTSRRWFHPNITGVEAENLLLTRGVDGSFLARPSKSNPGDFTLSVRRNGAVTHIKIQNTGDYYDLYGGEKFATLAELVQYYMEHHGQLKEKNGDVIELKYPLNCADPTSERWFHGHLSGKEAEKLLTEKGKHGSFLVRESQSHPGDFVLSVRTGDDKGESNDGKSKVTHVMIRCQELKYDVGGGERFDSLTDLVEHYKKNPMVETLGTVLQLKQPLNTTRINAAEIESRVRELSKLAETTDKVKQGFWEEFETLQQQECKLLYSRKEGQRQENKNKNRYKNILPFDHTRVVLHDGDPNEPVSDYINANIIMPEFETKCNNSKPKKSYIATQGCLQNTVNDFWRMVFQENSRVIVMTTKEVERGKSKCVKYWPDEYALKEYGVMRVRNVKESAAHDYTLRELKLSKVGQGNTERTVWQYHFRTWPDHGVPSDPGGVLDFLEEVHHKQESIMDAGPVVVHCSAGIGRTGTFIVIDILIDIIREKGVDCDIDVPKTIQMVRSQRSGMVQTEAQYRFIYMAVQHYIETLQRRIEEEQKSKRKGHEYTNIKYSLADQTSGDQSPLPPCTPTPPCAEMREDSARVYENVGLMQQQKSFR
In words: Phosphatase assay (PTPase assay, DiFMUP substrate). In kind it is biochemical. Here is the method:
IC50 values were measured using 6,8-difluoro-4-methylumbelliferyl phosphate (DiFMUP) as a substrate. The reaction was performed in a 384-well plate, and fluorescence measurement values were obtained using an EnVision plate reader from PerkinElmer.
SHP2 (full length, diluted to 100 pM final concentration in reaction buffer, BPS bioscience, US) was incubated with the SHP2 activating peptide in reaction buffer (60 mM HEPES (pH 7.2), 75 mM NaCl, 75 mM KCl, 1 mM EDTA, 5 mM DTT, 0.05% P-20) for 30 minutes to activate SHP2. After activation, DMSO [1% (V/V) or the compound according to the Examples (concentration ranging from 0.6 nM to 10 µM)] was added. As a positive control group, the selective SHP2 inhibitors SHP099 (6-(4-amino-4-methylpiperidin-1-yl)-3-(2,3-dichlorophenyl)pyrazin-2-amine, FOCUS bioscience, Austrailia; concentration ranging from 0.6 nM to 10 µM) and TNO155 ((3S,4S)-8-(6-amino-5-((2-amino-3-chloropyridin-4-yl)thio)pyrazin-2-yl)-3-methyl-2-oxa-8-azaspiro[4.5]decan-4-amine, Chemietek, US; concentration ranging from 0.6 nM to 10 µM) were used. [drawing 184]
DiFMUP (80 µM) was added to the reaction and incubated for a total of 2 hours to allow for the reaction to proceed. Thereafter, fluorescence (340 nm excitation, 450 nm emission) values were measured. IC50 values were obtained using Graphad's Prism from the measured values depending on the concentration.
In the phosphatase assay (PTPase assay), when an IC50 value was 100 nM or more, + was indicated, when an IC50 value was 3 nM or more and less than 100 nM, ++ was indicated, and when an IC50 value was less than 3 nM, +++ was indicated.

The subject of another test is H358 cells. The test is described as follows: Cell viability (3D spheroid, 3D CellTiter-Glo). It counts as cell-based. As to conditions: Homo sapiens, NCI-H358, 120 h; H358 spheroids, 5 days treatment. As for the experimental part: Human non-small cell lung cancer cell line H358 cells were purchased from the Korean Cell Line Bank. Cancer cell lines were cultured in the recommended RPMI-1640 medium supplemented with 10% fetal bovine serum (FBS) and 1% penicillin/streptomycin. Monolayer-cultured cancer cell lines were detached by treatment with Trypsin/EDTA, and 100 µL of cell suspension containing 4 x 10^3 cells was each dispensed into SPL3D™ Cell Floater, 96-well round plate, through cell line counting. After culturing for 72 hours to form spheroid, the cells were individually treated with the compounds according to the Examples, which had been serially diluted (minimum 1.5 nM, maximum 10 µM in concentration), and then cultured in a cell incubator for 5 days. To analyze cell viability, the cells were treated with 50 uL of 3D CellTiter-Glo, stirred for 5 minutes at 500 rpm in a plate shaker from Thermo Fisher Scientific, and incubated for 25 minutes at room temperature. Then, the luminescent values were measured using a Varioskan equipment from Thermo Fisher Scientific. IC50 values were obtained using GraphPad's Prism from the measured values depending on the concentration.
In the cell viability assay, when an IC50 value was 50 nM or more, + was indicated, when an IC50 value was 10 nM or more and less than 50 nM, ++ was indicated, and when an IC50 value was less than 10 nM, +++ was indicated.

Where [1] appears, read: full length SHP2 100 pM activated with SHP2 activating peptide, DiFMUP 80 µM, 2 hours, read-out: PTPase assay (IC50).

For `CC(C)(C)Cn1cnc2ccc(Sc3cnc(N4CCC5(CC4)Cc4ncsc4[C@H]5N)cn3)c(Cl)c2c1=O` [Example 5, (S)-6-((5-(6-amino-4,6-dihydrospiro[cyclopenta[d]thiazole-5,4'-piperidin]-1'-yl)pyrazin-2-yl)thio)-5-chloro-3-neopentylquinazolin-4(3H)-one], the IC50 on SHP2 (setting [1]) is below 0.003 µM. With `Cn1cnc2ccc(Sc3cnc(N4CCC5(CC4)Cc4ncccc4[C@H]5N)cn3)c(Cl)c2c1=O` [Example 6, (S)-6-((5-(5-amino-5,7-dihydrospiro[cyclopenta[b]pyridine-6,4'-piperidin]-1'-yl)pyrazin-2-yl)thio)-5-chloro-3-methylquinazolin-4(3H)-one], the figures for the IC50 in the test on H358 cells and at SHP2 (setting [1]) were below 0.01 µM and below 0.003 µM, respectively. The like results for `CC(C)(O)Cn1cnc2ccc(Sc3ncc(N4CCC5(CC4)Cc4ccccc4[C@H]5N)nc3N)c(Cl)c2c1=O` [Example 11, (S)-6-((3-amino-5-(1-amino-1,3-dihydrospiro[indene-2,4'-piperidin]-1'-yl)pyrazin-2-yl)thio)-5-chloro-3-(2-hydroxy-2-methylpropyl)quinazolin-4(3H)-one] were, in that order, below 0.01 µM and below 0.003 µM. Turning to `C[C@@H]1OCC2(CCN(c3cnc(Sc4ccc5ncn(Cc6ccccc6)c(=O)c5c4Cl)c(N)n3)CC2)[C@@H]1N` [Example 12, 6-((3-amino-5-((3S,4S)-4-amino-3-methyl-2-oxa-8-azaspiro[4.5]decan-8-yl)pyrazin-2-yl)thio)-3-benzyl-5-chloroquinazolin-4(3H)-one], on SHP2 (setting [1]), the IC50 lay within 0.003 to 0.1 µM. `CC1(CN)CCN(c2cnc(Sc3ccc4ncn(Cc5ccccc5)c(=O)c4c3Cl)c(N)n2)CC1` [Example 13, 6-((3-amino-5-(4-(aminomethyl)-4-methylpiperidine-1-yl)pyrazin-2-yl)thio)-3-benzyl-5-chloroquinazolin-4(3H)-one]: the IC50 on SHP2 (setting [1]) is 0.003 to 0.1 µM. Regarding `COC(C)Cn1ccc2ccc(Sc3cnc(N4CCC5(CC4)CO[C@@H](C)[C@H]5N)cn3)c(Cl)c2c1=O` (stereo partly drawn) [Example 14, 7-((5-((3S,4S)-4-amino-3-methyl-2-oxa-8-azaspiro[4.5]decan-8-yl)pyrazin-2-yl)thio)-8-chloro-2-(2-methoxypropyl)isoquinolin-1(2H)-one], the IC50 in the test with H358 cells was below 0.01 µM; on SHP2 (setting [1]) it was below 0.003 µM. In the test with H358 cells, `Cn1ccc2ccc(Sc3cnc(N4CCC5(CC4)Cc4ncsc4[C@H]5N)cn3)c(Cl)c2c1=O` [Example 16, (S)-7-((5-(6-amino-4,6-dihydrospiro[cyclopenta[d]thiazole-5,4'-pineridin]-1'-yl)pyrazin-2-yl)thio)-8-chloro-2-methylisoquinolin-1(2H)-one] yielded an IC50 below 0.01 µM. In the case of `Cn1cnc2ccc(Sc3cnc(N4CCC5(CC4)Cc4ncsc4[C@H]5N)cn3)cc2c1=O` [Example 17, (S)-6-((5-(6-amino-4,6-dihydrospiro[cyclopenta[d]thiazole-5,4'-piperidin]-1'-yl)pyrazin-2-yl)thio)-3-methylquinazolin-4(3H)-one], the IC50 is below 0.01 µM in the test on H358 cells and below 0.003 µM on SHP2 (setting [1]). `COC(F)(F)Cn1cnc2ccc(Sc3cnc(N4CCC5(CC4)CO[C@@H](C)[C@H]5N)cn3)c(Cl)c2c1=O` [Example 19, 6-((5-((3S,4S)-4-amino-3-methyl-2-oxa-8-azaspiro[4.5]decan-8-yl)pyrazin-2-yl)thio)-5-chloro-3-(2,2-difluoro-2-methoxyethyl)quinazolin-4(3H)-one]: the IC50 at SHP2 (setting [1]) was below 0.003 µM. On the same count and under the same terms, with `COC1(Cn2cnc3ccc(Sc4cnc(N5CCC6(CC5)CO[C@@H](C)[C@H]6N)cn4)c(Cl)c3c2=O)CC1` [Example 20, 6-((5-((3S,4S)-4-amino-3-methyl-2-oxa-8-azaspiro[4.5]decan-8-yl)pyrazin-2-yl)thio)-5-chloro-3-((1-methoxycyclopropyl)methyl)quinazolin-4(3H)-one] the figure was 0.003 to 0.1 µM; with `C[C@@H]1OCC2(CCN(c3cnc(Sc4ccc5ncn(CC(C)(F)F)c(=O)c5c4Cl)cn3)CC2)[C@@H]1N` [Example 21, 6-((5-((3S,4S)-4-amino-3-methyl-2-oxa-8-azaspiro[4.5]decan-8-yl)pyrazin-2-yl)thio)-5-chloro-3-(2,2-difluoropropyl)quinazolin-4(3H)-one], below 0.003 µM. In the case of `COCCn1cnc2ccc(Sc3cnc(N4CCC5(CC4)Oc4ccccc4[C@H]5N)cn3)c(Cl)c2c1=O` [Example 22, (R)-6-((5-(3-amino-3H-spiro[benzofuran-2,4'-piperidin]-1'-yl)pyrazin-2-yl)thio)-5-chloro-3-(2-methoxyethyl)quinazolin-4(3H)-one], the IC50 at SHP2 (setting [1]) was in the range of 0.003 to 0.1 µM.

For the molecule `C[C@@H]1OCC2(CCN(c3cnc(Sc4ccc5ncn(CC6(C)CCOCC6)c(=O)c5c4Cl)cn3)CC2)[C@@H]1N` [Example 23, 6-((5-((3S,4S)-4-amino-3-methyl-2-oxa-8-azaspiro[4.5]decan-8-yl)pyrazin-2-yl)thio)-5-chloro-3-((4-methyltetrahydro-2H-pyran-4-yl)methyl)quinazolin-4(3H)-one], the IC50 in the test with H358 cells was 0.01 to 0.05 µM; at SHP2 (setting [1]) it was below 0.003 µM. For the molecule `C[C@@H]1OCC2(CCN(c3cnc(Sc4ccc5ncn(CCC#N)c(=O)c5c4Cl)cn3)CC2)[C@@H]1N` [Example 24, 3-(6-((5-((3S,4S)-4-amino-3-methyl-2-oxa-8-azaspiro[4.5]decan-8: yl)pyrazin-2-yl)thio)-5-chloro-4-oxoquinazolin-3(4H)-yl)propanenitrile], the IC50 in the test on H358 cells was 0.01 to 0.05 µM; on SHP2, below 0.003 µM. Turning to `C[C@@H]1OCC2(CCN(c3cnc(Sc4ccc5ncn(CC6CCN(C)CC6)c(=O)c5c4Cl)cn3)CC2)[C@@H]1N` [Example 26, 6-((5-((3S,4S)-4-amino-3-methyl-2-oxa-8-azaspiro[4.5]decan-8-yl)pyrazin-2-yl)thio)-5-chloro-3-((1-methylpiperidin-4-yl)methyl)quinazolin-4(3H)-one], the IC50 in the test on H358 cells was below 0.01 µM; at SHP2 (setting [1]), 0.003 to 0.1 µM.

On to `N[C@@H]1c2ccccc2CC12CCN(c1cnc(Sc3ccc4ncn(-c5ccccc5)c(=O)c4c3Cl)cn1)CC2` [Example 30, (S)-6-((5-(1-amino-1,3-dihydrospiro[indene-2,4'-piperidin]-1'-yl)pyrazin-2-yl)thio)-5-chloro-3-phenylquinazolin-4(3H)-one], for which, in the test with H358 cells, the IC50 is below 0.01 µM. On the same count and under the same terms, as for `COC(C)(C)Cn1cnc2ccc(Sc3cnc(N4CCC5(CC4)Cc4scnc4[C@H]5N)cn3)c(Cl)c2c1=O` [Example 33, (S)-6-((5-(4-amino-4,6-dihydrospiro[cyclopenta[d]thiazole-5,4'-piperidin]-1'-yl)pyrazin-2-yl)thio)-5-chloro-3-(2-methoxy-2-methylpropyl)quinazolin-4(3H)-one], the figure is 0.01 to 0.05 µM. Turning to `N[C@@H]1c2scnc2CC12CCN(c1cnc(Sc3ccc4ncn(-c5ccccc5)c(=O)c4c3Cl)cn1)CC2` [Example 38, (S)-6-((5-(6-amino-4,6-dihydrospiro[cyclopenta[d]thiazole-5,4'-piperidin]-1'-yl)pyrazin-2-yl)thio)-5-chloro-3-phenylquinazolin-4(3H)-one], in the test on H358 cells, the IC50 is below 0.01 µM.
